The record followed here is patent publication US10280184B2, “Heterocyclic kinase inhibitors” (AbbVie Inc., priority 2014, dated 2019).

Where only a bound is given, the exact number is not on record here.

Chain of BTK (Q06187 393-659): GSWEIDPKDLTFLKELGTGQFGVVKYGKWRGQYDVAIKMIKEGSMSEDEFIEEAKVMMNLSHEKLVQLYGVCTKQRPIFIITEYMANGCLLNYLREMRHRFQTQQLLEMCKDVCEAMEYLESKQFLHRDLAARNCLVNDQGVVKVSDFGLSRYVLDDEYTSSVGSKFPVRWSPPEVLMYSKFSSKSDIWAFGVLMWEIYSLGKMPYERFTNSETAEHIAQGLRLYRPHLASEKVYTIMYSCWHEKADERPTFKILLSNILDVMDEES
Chain of CSF-1R (P07333 538-910): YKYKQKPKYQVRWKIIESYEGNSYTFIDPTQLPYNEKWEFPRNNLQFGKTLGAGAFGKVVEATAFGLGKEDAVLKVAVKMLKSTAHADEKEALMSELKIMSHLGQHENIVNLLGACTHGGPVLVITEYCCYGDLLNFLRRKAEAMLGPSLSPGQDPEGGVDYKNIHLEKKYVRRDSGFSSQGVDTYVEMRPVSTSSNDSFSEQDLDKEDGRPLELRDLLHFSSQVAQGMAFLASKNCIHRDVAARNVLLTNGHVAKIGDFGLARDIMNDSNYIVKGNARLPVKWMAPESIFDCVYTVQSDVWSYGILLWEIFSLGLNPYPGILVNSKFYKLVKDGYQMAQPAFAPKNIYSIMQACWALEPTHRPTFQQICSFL

One assay deals with CSF-1R (Homo sapiens (Human), UniProt P07333). The assay can be described thus: In vitro CSF-1R kinase activity measured by trFRET. Type of assay: biochemical. Particulars: recombinant human catalytic domain (aa 538-910), 0.1 mM ATP; read-out: CSF-1R enzyme IC50. As to the method:
In Vitro CSF-1R Kinase Activity Measured by Time-Resolved Fluorescence Resonance Energy Transfer (trFRET)
(§1) The CSF-1R construct corresponds to recombinant human catalytic domain (aa 538-910), which was purchased from Invitrogen (cat #PV4092). CSF-1R was mixed with peptide substrate (biotin-TYR1, Sequence: Biotin-(Ahx)-GAEEEIYAAFFA-COOH, 4 μM final) at varying inhibitor concentrations in reaction buffer: 50 mM MOPSO pH 6.5, 10 mM MgCl2, 2 mM MnCl2, 2.5 mM DTI, 0.01% BSA, 0.1 mM Na3VO4 and 0.1 mM ATP. After about 60 min incubation at rt, the reaction was quenched by addition of EDTA (final concentration: 100 mM) and developed by addition of detection reagents (final approximate concentrations: 30 mM HEPES pH 7.0, 0.06% BSA, 0.006% Tween-20, 0.24 M KF, 80 ng/mL PT66K (europium labeled anti-phosphotyrosine antibody cat #61T66KLB Cisbio, Bedford, Mass.) and 0.6 μg/mL SAXL (Phycolink streptavidin-allophycocyanin acceptor, cat #PJ25S, Prozyme, San Leandro, Calif.). The developed reaction was incubated in the dark for about 60 min at rt, then read via a time-resolved fluorescence detector (Rubystar, BMG) using a 337 nm laser for excitation and monitoring emission wavelength at 665 nm. Within the linear range of the assay, the observed signal at 665 nm was directly related to phosphorylated product and can be used to calculate the IC50 values.
As a reminder, the IC50 is the point on the concentration scale where inhibition reaches its midpoint. With `Cn1cc(Nc2nc([C@@H]3CCC[C@@H](O)C3)cn3ncnc23)cn1` (single isomer, unassigned) [Example 10], the IC50 was < 100 nM.

On to `CC(C)(O)CCn1cc(Nc2nc(C3CCCCC3)cn3ncnc23)cn1` [A.1.1, 4-(4-((6-cyclohexyl-[1,2,4]triazolo[1,5-a]pyrazin-8-yl)amino)-1H-pyrazol-1-yl)-2-methylbutan-2-ol], for which the IC50 was < 100 nM.

Take `c1nc2c(Nc3cnn(C4CCOCC4)c3)nc(C3CCCCC3)cn2n1` [A.1.2, 6-cyclohexyl-N-(1-(tetrahydro-2H-pyran-4-yl)-1H-pyrazol-4-yl)-[1,2,4]triazolo[1,5-a]pyrazin-8-amine]: the IC50 was < 100 nM.

For `c1nc2c(Nc3cnn(C4COC4)c3)nc(C3CCCCC3)cn2n1` [A.1.4, 6-cyclohexyl-N-(1-(oxetan-3-yl)-1H-pyrazol-4-yl)-[1,2,4]triazolo[1,5-a]pyrazin-8-amine], the IC50 is < 100 nM.

On to `c1nc2c(Nc3cn[nH]c3)nc(C3CCCCC3)cn2n1` [A.1.7, 6-cyclohexyl-N-(1H-pyrazol-4-yl)-[1,2,4]triazolo[1,5-a]pyrazin-8-amine], for which the concentration for half-maximal inhibition (IC50) is < 100 nM.

`CCOC(=O)[C@H]1CC[C@@H](n2cc(Nc3nc(C4CCCCC4)cn4ncnc34)cn2)CC1` [A.1.8, cis-ethyl 4-(4-((6-cyclohexyl-[1,2,4]triazolo[1,5-a]pyrazin-8-yl)amino)-1H-pyrazol-1-yl)cyclohexanecarboxylate]: the half-maximal inhibitory concentration (IC50) is < 100 nM.

Consider `c1nc2c(Nc3cnn(C4CCNCC4)c3)nc(C3CCCCC3)cn2n1` [D.1.1, 6-cyclohexyl-N-(1-(piperidin-4-yl)-1H-pyrazol-4-yl)-[1,2,4]triazolo[1,5-a]pyrazin-8-amine], for which the IC50 is < 100 nM.

As to `c1nc2c(Nc3cnn(C4CCNCC4)c3)nc(C3CCCC3)cn2n1` [D.1.2, 6-cyclopentyl-N-(1-(piperidin-4-yl)-1H-pyrazol-4-yl)-[1,2,4]triazolo[1,5-a]pyrazin-8-amine], the IC50 was < 100 nM.

Take `CC(C)n1cc(Nc2nc(C3CCCCC3)cn3ncnc23)cn1` [E.1.1, 6-cyclohexyl-N-(1-isopropyl-1H-pyrazol-4-yl)-[1,2,4]triazolo[1,5-a]pyrazin-8-amine]: the IC50 is < 100 nM.

Consider `Cn1cc(Nc2nc(C3CCC(C)(C)CC3)cn3ncnc23)cn1` [E.1.2, 6-(4,4-dimethylcyclohexyl)-N-(1-methyl-1H-pyrazol-4-yl)-[1,2,4]triazolo[1,5-a]pyrazin-8-amine], for which the IC50 was < 100 nM.

For `Cn1cc(Nc2nc([C@H]3CC[C@H](C)CC3)cn3ncnc23)cn1` [E.1.3], the IC50 was < 100 nM.

Consider `Cn1cc(Nc2nc([C@H]3CC[C@@H](C)CC3)cn3ncnc23)cn1` [E.1.4], for which the IC50 is < 100 nM.

For the compound `Cn1cc(Nc2nc([C@H]3CC[C@H](C(F)(F)F)CC3)cn3ncnc23)cn1` [E.1.5, N-(1-methyl-1H-pyrazol-4-yl)-6-((1R,4R)-4-(trifluoromethyl)cyclohexyl)-[1,2,4]triazolo[1,5-a]pyrazin-8-amine], the half-maximal inhibitory concentration (IC50) was < 100 nM.

In the case of `c1nc2c(Nc3cc4n(n3)CCOC4)cc(C3CCCCC3)cn2n1` [E.1.6, N-(6-cyclohexyl-[1,2,4]triazolo[1,5-a]pyridin-8-yl)-6,7-dihydro-4H-pyrazolo[5,1-c][1,4]oxazin-2-amine], the IC50 was < 100 nM.

With `CN1CCn2nc(Nc3cc(C4CCCCC4)cn4ncnc34)cc2C1` [E.1.7, 6-cyclohexyl-N-(5-methyl-4,5,6,7-tetrahydropyrazolo[1,5-a]pyrazin-2-yl)-[1,2,4]triazolo[1,5-a]pyridin-8-amine], the IC50 was < 100 nM.

`Cn1cc(Nc2nc(C3CCCC3)cn3ncnc23)cn1` [E.1.8, 6-cyclopentyl-N-(1-methyl-1H-pyrazol-4-yl)-[1,2,4]triazolo[1,5-a]pyrazin-8-amine]: the IC50 was < 100 nM.

In the next assay the target is BTK (Homo sapiens (Human), UniProt Q06187). Description: In vitro BTK kinase activity measured by trFRET. In kind it is biochemical. Particulars: recombinant human catalytic domain (aa 393-659), 0.01 mM ATP; read-out: Btk enzyme IC50. As to the method:
In Vitro BTK Kinase Activity Measured by Time-Resolved Fluorescence Resonance Energy Transfer (trFRET)
as §1, with “The in-house BTK” for “The CSF-1R construct”, “(aa 393-659),” for “(aa 538-910),”, “was expressed in SF9 cells with an N-terminal his tag and purified by immobilized metal affinity chromatography. BTK” for “was purchased from Invitrogen (cat #PV4092). CSF-1R”, “Biotin-(Ahx)-GAEEEIYAAFFA-COOH, 0.4” for “Biotin-(Ahx)-GAEEEIYAAFFA-COOH, 4”, “mM DTT,” for “mM DTI,”, “and 0.01” for “and 0.1”
Regarding `C=CC(=O)N1CCC(c2cc(Nc3ccc4c(c3)NC(=O)CCC4)c3ncnn3c2)C1` (stereo not drawn) [F.1.15, 8-((6-(1-acryloylpyrrolidin-3-yl)-[1,2,4]triazolo[1,5-a]pyridin-8-yl)amino)-4,5-dihydro-1H-benzo[b]azepin-2(3H)-one], the half-maximal inhibitory concentration (IC50) fell in the range of 100 to 1000 nM.

For the compound `C=CC(=O)N1CCC(c2cn3ncnc3c(NC)n2)C1` (stereo not drawn) [F.1.16, 1-(3-(8-(methylamino)-[1,2,4]triazolo[1,5-a]pyrazin-6-yl)pyrrolidin-1-yl)prop-2-en-1-one], the 50% inhibitory concentration (IC50) was in the range of 1000 to 50000 nM.

Consider `C=CC(=O)N1CCC(c2cn3ncnc3c(Nc3ccc(N4CCOCC4)nc3)n2)C1` (stereo not drawn) [F.1.19, 1-(3-(8-((6-morpholinopyridin-3-yl)amino)-[1,2,4]triazolo[1,5-a]pyrazin-6-yl)pyrrolidin-1-yl)prop-2-en-1-one], for which the IC50 lay in the range of 100 to 1000 nM.

On to `C=CC(=O)N1CCCC(c2cc(Nc3ccn(C)n3)c3ncnn3c2)C1` (stereo not drawn) [F.1.21, 1-(3-(8-((1-methyl-1H-pyrazol-3-yl)amino)-[1,2,4]triazolo[1,5-a]pyridin-6-yl)piperidin-1-yl)prop-2-en-1-one], for which the IC50 was 100 to 1000 nM.

As to `C=CC(=O)N1CCC(c2cn3ncnc3c(Nc3cnn(C)c3)n2)C1` (stereo not drawn) [F.1.22, 1-(3-(8-((1-methyl-1H-pyrazol-4-yl)amino)-[1,2,4]triazolo[1,5-a]pyrazin-6-yl)pyrrolidin-1-yl)prop-2-en-1-one], the IC50 is < 100 nM.

As for `C=CC(=O)N1CCC(c2cn3ncnc3c(Nc3ccn(C)n3)n2)C1` (stereo not drawn) [F.1.23, 1-(3-(8-((1-methyl-1H-pyrazol-3-yl)amino)-[1,2,4]triazolo[1,5-a]pyrazin-6-yl)pyrrolidin-1-yl)prop-2-en-1-one], the IC50 fell in the range of 1000 to 50000 nM.

For the compound `C=CC(=O)N1CC[C@H](c2cc(Nc3ccn(C)n3)c3ncnn3c2)C1` [F.1.38, (R)-1-(3-(8-((1-methyl-1H-pyrazol-3-yl)amino)-[1,2,4]triazolo[1,5-a]pyridin-6-yl)pyrrolidin-1-yl)prop-2-en-1-one], the IC50 was < 100 nM.

For the compound `C=CC(=O)N1CC[C@@H](c2cc(Nc3cc4n(n3)CCN(C)C4)c3ncnn3c2)C1` [F.1.39], the half-maximal inhibitory concentration (IC50) is < 100 nM.

Consider `C=CC(=O)N1CCC[C@@H](c2cc(Nc3cc4n(n3)CCN(C)C4)c3ncnn3c2)C1` [F.1.40], for which the IC50 is < 100 nM.

For `C=CC(=O)N1CCC(c2cc(Nc3cc4n(n3)CCOC4)c3nccn3n2)C1` (stereo not drawn) [F.1.41, 1-(3-(8-((6,7-dihydro-4H-pyrazolo[5,1-c][1,4]oxazin-2-yl)amino)imidazo[1,2-b]pyridazin-6-yl)pyrrolidin-1-yl)prop-2-en-1-one], the IC50 was < 100 nM.

Take `C=CC(=O)N1CC(c2cc(Nc3cc4n(n3)CCOC4)c3ncnn3c2)C1` [F.1.42]: the IC50 was < 100 nM.

For the compound `C=CC(=O)N1CC[C@@H](c2cn3ncnc3c(Nc3ccc(OC)c(OC)c3)n2)C1` [F.1.112], the 50% inhibitory concentration (IC50) was 1000 to 50000 nM.

On to `Cn1ccc(Nc2cc(C3CCN(C#N)C3)cn3ncnc23)n1` (stereo not drawn) [I.1, 3-(8-((1-methyl-1H-pyrazol-3-yl)amino)-[1,2,4]triazolo[1,5-a]pyridin-6-yl)pyrrolidine-1-carbonitrile], for which the IC50 fell in the range of 100 to 1000 nM.

With `Cn1ccc(Nc2cc(C3CCCN(C#N)C3)cn3ncnc23)n1` (stereo not drawn) [I.1.1, 3-(8-((1-methyl-1H-pyrazol-3-yl)amino)-[1,2,4]triazolo[1,5-a]pyridin-6-yl)piperidine-1-carbonitrile], the half-inhibitory concentration (IC50) is 100 to 1000 nM.

`Cn1cc(Nc2nc(C3CCN(C#N)C3)cn3ncnc23)cn1` (stereo not drawn) [I.1.2]: the half-inhibitory concentration (IC50) lay in the range of 100 to 1000 nM.

In the case of `N#CN1CCCC(c2cc(Nc3cc4n(n3)CCOC4)c3ncnn3c2)C1` (stereo not drawn) [I.1.3, 3-(8-((6,7-dihydro-4H-pyrazolo[5,1-c][1,4]oxazin-2-yl)amino)-[1,2,4]triazolo[1,5-a]pyridin-6-yl)piperidine-1-carbonitrile], the IC50 was 100 to 1000 nM.

Consider `Cn1ccc(Nc2cc([C@H]3CCC[C@H](NC#N)C3)cn3ncnc23)n1` [I.1.4, N—((1S,3S)-3-(8-((1-methyl-1H-pyrazol-3-yl)amino)-[1,2,4]triazolo[1,5-a]pyridin-6-yl)cyclohexyl)cyanamide], for which the half-maximal inhibitory concentration (IC50) lay within 100 to 1000 nM.
